According to article PMC3406087, “The Molecular Basis of Drug Resistance against Hepatitis C Virus NS3/4A Protease Inhibitors” (PLoS Pathogens, 2012):
Where two headings read alike, the source gives them in different places.

Experiments:
[1] = system: D168A genotype 1a HCV Con1 luciferase reporter replicon in Huh7 cells; assay: Viral replicon-based inhibition assay, D168A variant; assay type: cell-based, HCV genotype 1a; conditions: Hepatitis C virus, Huh-7, 96 h, read-out: Replicon - IC50, D168A
Excerpt: (§1) Single mutations (R155K, D168A, or A156T) were introduced into the NS3 region of genotype 1a HCV Con1 luciferase reporter replicon using the mega-primer method of mutagenesis. Replicon RNA of each protease variant was introduced into Huh7 cells by electroporation.

[2] = system: A156T genotype 1a HCV Con1 luciferase reporter replicon in Huh7 cells; assay: Viral replicon-based inhibition assay, A156T variant; assay type: cell-based, HCV genotype 1a; conditions: Hepatitis C virus, Huh-7, 96 h, read-out: Replicon - IC50, A156T
Excerpt: as §1

[3] = system: wild-type genotype 1a HCV Con1 luciferase reporter replicon in Huh7 cells; assay: Viral replicon-based inhibition assay, wild-type; assay type: cell-based, HCV genotype 1a; conditions: Hepatitis C virus, Huh-7, luciferase activity 96 hours after electroporation, read-out: Replicon - IC50, WT
Excerpt: . The antiviral activities against the resistant variants trended with changes in binding affinities measured in enzyme inhibition assays (Table 1). […]. Single mutations (R155K, D168A, or A156T) were introduced into the NS3 region of genotype 1a HCV Con1 luciferase reporter replicon using the mega-primer method of mutagenesis. Replicon RNA of each protease variant was introduced into Huh7 cells by electroporation. […]. The drug concentrations required to inhibit replicon replication by 50% (IC50) were calculated directly from the drug inhibition curves.

[4] = system: R155K genotype 1a HCV Con1 luciferase reporter replicon in Huh7 cells; assay: Viral replicon-based inhibition assay, R155K variant; assay type: cell-based, HCV genotype 1a; conditions: Hepatitis C virus, Huh-7, 96 h, read-out: Replicon - IC50, R155K
Excerpt: as §1

[5] = biological target: genotype 1a HCV NS3/4A protease domain (wild-type) (Hepatitis C virus genotype 1a, UniProt A8DG50); assay: biochemical; set-up: species or system HCV genotype 1a
genotype 3 viruses = genotype 3 viruses (Q168, T123); cited from earlier work
[6] = biological target: T1, genotype 1a HCV NS3/4A protease domain A156T (Hepatitis C virus genotype 1a, UniProt P27958, A1182T); assay: biochemical; set-up: species or system HCV genotype 1a
T1 construct: single-chain construct of the genotype 1a NS3/4A protease domain; His-tag (cleaved yes); made in house; host or cells: E. coli BL21 (DE3)

[7] = apparent Ki, Morrison equation, 5 nM protease, triplicate, average ± standard deviation, read-out: Binding - Ki, WT

| Structure (SMILES) | IC50 [1] [nM] | IC50 [2] [nM] | IC50 [3] [nM] | IC50 [4] [nM] | Ki [5] [nM] | Efficacy against genotype 3 viruses (genotype 3 viruses) | Ki [5, 7] [nM] | Ki [6] [nM] |
| --- | --- | --- | --- | --- | --- | --- | --- | --- |
| CCC[C@H](NC(=O)[C@@H]1[C@H]2CCC[C@H]2CN1C(=O)[C@@H](NC(=O)[C@@H](NC(=O)c1cnccn1)C1CCCCC1)C(C)(C)C)C(=O)C(=O)NC1CC1 [Telaprevir (VX-950), Telaprevir] | 420 | > 50000 | 1030 | 5300 | 34.4 ± 3 |  |  |  |
| C=C[C@@H]1C[C@]1(NC(=O)[C@@H]1C[C@@H]2CN1C(=O)[C@H](C(C)(C)C)NC(=O)O[C@@H]1C[C@H]1CCCCCc1nc3ccc(OC)cc3nc1O2)C(=O)NS(=O)(=O)C1CC1 [MK-5172] | 13 | 108 | 0.11 | 0.55 |  |  |  |  |
| CC[C@@H]1C[C@]1(NC(=O)[C@@H]1C[C@@H]2CN1C(=O)[C@H](C(C)(C)C)NC(=O)OCC(C)(C)CCCCc1cccc3c1CN(C3)C(=O)O2)C(=O)NS(=O)(=O)C1CC1 [Vaniprevir (MK-7009), Vaniprevir] | > 400 | 176 | 0.34 | > 400 |  | reduced efficacy | 0.74 ± 0.07 |  |
| CC(C)(C)OC(=O)N[C@H]1CCCCC/C=C\[C@@H]2C[C@@]2(C(=O)NS(=O)(=O)C2CC2)NC(=O)[C@@H]2C[C@@H](OC(=O)N3Cc4cccc(F)c4C3)CN2C1=O [Danoprevir (ITMN-191), Danoprevir] | 48 | 5.7 | 0.24 | > 100 |  | reduced efficacy | 1 ± 0.1 | 44.8 ± 3.6 |
